Measurements reported in patent EP0603240B1, “SAFENING HERBICIDAL PYRAZOLYLSULFONYLUREAS” (priority 1991, dated 1993).

Legend:
Format in all cases: in vivo
[1] = test system: barnyardgrass (Echinochloa crusgalli); assay: Example 22: retest of Example 21 at reduced greenhouse temperatures; conditions: Table 22
Description: (§1) Containers were filled and compacted with a fumigated silt loam top soil to a depth of about 1.3 cm from the top of the container. A first container was designated as an untreated control, a second container was designated as a herbicide control, and a third container was designated as a herbicide + antidote test container. Each of the containers was seeded with a crop species. A measured amount of herbicide dispersed or dissolved in acetone was applied to a measured quantity of soil. To this same quantity of soil treated with herbicide, there was added a measured amount of antidote dispersed or dissolved in acetone. The quantity of soil treated with the herbicide and antidote was thoroughly mixed to incorporate the herbicide and antidote in the soil uniformly. The seed bed in the third container of soil was covered with the soil treated with the herbicide and antidote and the container was leveled. For each test series, the seed beds of the first and second containers were likewise covered by soil layers. the cover layer of the first container was not treated with herbicide or antidote.
(§2) The containers were then placed on a bench in a greenhouse and sub-irrigated as required for the duration of the test. […] Plant response is measured in terms of percent injury. Antidote efficacy is indicated as the difference in plant injury by the herbicide(s) without the antidote and with the antidote.
(§3) This procedure is the same as Procedure I, but modified in the manner that after incorporation of the chemicals (herbicide and antidote) the containers with the covered seedbed were treated with an initial overhead irrigation equivalent to 0.6 cm rainfall, then subsequently sub-irrigated as required on greenhouse benches.
(§4) In the series of greenhouse tests described below, for routine screening purposes the herbicide/antidote compositions were tested in crop/weed combinations involving corn as the crop and either or both of the weeds barnyardgrass (Echinochloa crusgalli), a monocotyledonous weed, and velvetleaf (Abutilon theophrasti), a dicotyledonous weed. In the tables below, these weeds are indicated by the symbols "BYG" and "VL", respectively.
(§5) In this example, tests were conducted as in the preceding Examples 18-20, except here the co-herbicidal component was SUTAN® PLUS, a commercial product comprising as the active herbicidal ingredient the compound butylate (Herbicide No. 10) and an antidote […] (Antidote No. 1). Again, the antidotal compounds herein were Nos. 1, 2, 7, 13 and 15. Procedure II was used.
(§6) The experiments in this example were designed as a retest of those described in Example 21 in view of the uncharacteristically poor corn safety and weed control, believed to have resulted from unseasonably high temperatures in the greenhouse. Accordingly, temperatures were reduced for these tests.

[2] = test system: velvetleaf (Abutilon theophrasti); assay: as above; conditions: Table 22
Description: as §1, §2, §3, §4, §5, §6

[3] = test system: barnyardgrass (Echinochloa crusgalli); assay: Example 18, Procedure II: Herbicide No. 1 + ERADICANE (EPTC + R-25788) with auxiliary antidotes
Description: as §1, §2, §3, §4
(§7) In the test reported in this example, the herbicidal composition was similar to that used in Example 16 in that Herbicide No. 1 was combined with EPTC (Herbicide No. 4) as a co-herbicide and the antidotes included Nos. 1, 2, 7, 13 and 15. However, in this test the EPTC was introduced as a formulation of ERADICANE (EPTC + the antidote R-25788, i.e., Antidote No. 1) at an application rate of 8.96 kg/ha. Thus, in this test two antidotes were present, viz. R-25788 and one of the auxilliary antidotes, No. 2, 13 and 15.
(§8) Test procedures were those of Procedure II above.

[4] = test system: velvetleaf (Abutilon theophrasti); assay: as above
Description: as §1, §2, §3, §4, §7, §8

[5] = test system: barnyardgrass (Echinochloa crusgalli); assay: Example 21, Procedure II: Herbicide No. 1 + SUTAN PLUS (butylate + antidote) with antidotes
Description: as §1, §2, §3, §4, §5

[6] = test system: velvetleaf (Abutilon theophrasti); assay: as above
Description: as §1, §2, §3, §4, §5

[7] = test system: barnyardgrass (Echinochloa crusgalli); assay: Example 19, Procedure II: Herbicide No. 1 + ERADICANE EXTRA with added antidotes
Description: as §1, §2, §3, §4, §7
(§9) The test reported in this example was performed in the same manner and with the same antidotes used in Example 18, the only difference being the substitution of the commercial herbicidal product ERADICANE® EXTRA for ERADICANE®. ERADICANE EXTRA is a formulation containing both an antidote, i.e., R-29148 (Antidote No. 5 herein), and an extender, dietholate.

[8] = test system: velvetleaf (Abutilon theophrasti); assay: as above
Description: as §1, §2, §3, §4, §7, §9

corn [9] = assay: Example 7, Procedure II: Herbicide No. 1 + metolachlor (No. 12) with antidotes
Description: as §1, §2, §3
(§10) In this example, Procedure II described above was followed. The data from the tests in this example is shown in Table 6 and represents averages of duplicate replications.
(§11) The tests in this example followed the same procedure and antidotes used in Example 6. However, Herbicide No. 12 (metolachlor) was used as the co-herbicide with Herbicide No. 1.

corn [10] = assay: Example 18, Procedure II: Herbicide No. 1 + ERADICANE (EPTC + R-25788) with auxiliary antidotes
Description: as §1, §2, §3, §7, §8

[11] = test system: barnyardgrass (Echinochloa crusgalli); assay: Example 7, Procedure II: Herbicide No. 1 + metolachlor (No. 12) with antidotes
Description: as §1, §2, §3, §4, §10, §11

[12] = test system: velvetleaf (Abutilon theophrasti); assay: as above
Description: as §1, §2, §3, §4, §10, §11

[13] = Herbicide No.1 0.56 Kg/ha + SUTAN + 8.96 Kg/ha + antidote 2.24 Kg/ha
[14] = Herbicide No.1 0.56 Kg/ha + SUTAN + 8.96 Kg/ha + antidote 8.96 Kg/ha
[15] = Herbicide No.1 1.12 Kg/ha + SUTAN + 8.96 Kg/ha + antidote 2.24 Kg/ha
[16] = Herbicide No.1 1.12 Kg/ha + SUTAN + 8.96 Kg/ha + antidote 8.96 Kg/ha
[17] = Herbicide No.1 0.56 kg/ha + ERADICANE 8.96 kg/ha, antidote 2.24 kg/ha
[18] = Herbicide No.1 0.56 kg/ha + ERADICANE 8.96 kg/ha, antidote 8.96 kg/ha
[19] = Herbicide No.1 1.12 kg/ha + ERADICANE 8.96 kg/ha, antidote 2.24 kg/ha
[20] = Herbicide No.1 1.12 kg/ha + ERADICANE 8.96 kg/ha, antidote 8.96 kg/ha
[21] = Herbicide No.1 0.56 kg/ha + SUTAN + 8.96 kg/ha, antidote 2.24 kg/ha
[22] = Herbicide No.1 0.56 kg/ha + SUTAN + 8.96 kg/ha, antidote 8.96 kg/ha
[23] = Herbicide No.1 1.12 kg/ha + SUTAN + 8.96 kg/ha, antidote 2.24 kg/ha
[24] = Herbicide No.1 1.12 kg/ha + SUTAN + 8.96 kg/ha, antidote 8.96 kg/ha
[25] = Herbicide No.1 0.56 kg/ha + ERADICANE EXTRA 8.96 kg/ha, antidote 2.24 kg/ha
[26] = Herbicide No.1 0.56 kg/ha + ERADICANE EXTRA 8.96 kg/ha, antidote 8.96 kg/ha
[27] = Herbicide No.1 1.12 kg/ha + ERADICANE EXTRA 8.96 kg/ha, antidote 2.24 kg/ha
[28] = Herbicide No.1 1.12 kg/ha + ERADICANE EXTRA 8.96 kg/ha, antidote 8.96 kg/ha
[29] = Herbicide No.1 0.14 + No.12 3.36 kg/ha + antidote 2.24 kg/ha
[30] = Herbicide No.1 0.14 + No.12 3.36 kg/ha + antidote 8.96 kg/ha
[31] = Herbicide No.1 0.56 + No.12 3.36 kg/ha + antidote 2.24 kg/ha
[32] = Herbicide No.1 0.56 + No.12 3.36 kg/ha + antidote 8.96 kg/ha
[33] = Herbicide No.1 0.56 Kg/ha + SUTAN + 8.96 Kg/ha, no added antidote
[34] = Herbicide No.1 0.56 Kg/ha alone
[35] = Herbicide No.1 1.12 Kg/ha + SUTAN + 8.96 Kg/ha, no added antidote
[36] = Herbicide No.1 1.12 Kg/ha alone
[37] = Herbicide No.1 0.14 + No.12 3.36 kg/ha, no antidote
[38] = Herbicide No.1 0.14 + No.12 3.36 kg/ha, no antidote (second such line, r25)
[39] = Herbicide No.1 0.56 + No.12 3.36 kg/ha, no antidote (second such line, r24)
[40] = Herbicide No.1 0.56 + No.12 (metolachlor) 3.36 kg/ha, no antidote
[41] = Herbicide No.1 0.56 kg/ha + ERADICANE 8.96 kg/ha, no added antidote
[42] = Herbicide No.1 0.56 kg/ha alone
[43] = Herbicide No.1 1.12 kg/ha + ERADICANE 8.96 kg/ha, no added antidote
[44] = Herbicide No.1 1.12 kg/ha alone
[45] = Herbicide No.1 0.56 kg/ha + SUTAN + 8.96 kg/ha, no added antidote
[46] = Herbicide No.1 1.12 kg/ha + SUTAN + 8.96 kg/ha, no added antidote
[47] = Herbicide No.1 0.56 kg/ha + ERADICANE EXTRA 8.96 kg/ha, no added antidote
[48] = Herbicide No.1 1.12 kg/ha + ERADICANE EXTRA 8.96 kg/ha, no added antidote

## CC1(C)OC(c2ccco2)CN1C(=O)C(Cl)Cl (stereo not drawn) [compound 15]
[1]; [13]
  % Injury BYG: 85%
[1]; [14]
  % Injury BYG: 90%
[1]; [15]
  % Injury BYG: 85%
[1]; [16]
  % Injury BYG: 90%
[2]; [13]
  % Injury VL: 70%
[2]; [14]
  % Injury VL: 98%
[2]; [15]
  % Injury VL: 80%
[2]; [16]
  % Injury VL: 80%
[3]; [17]
  % Injury BYG: 90%
[3]; [18]
  % Injury BYG: 90%
[3]; [19]
  % Injury BYG: 93%
[3]; [20]
  % Injury BYG: 85%
[4]; [17]
  % Injury VL: 80%
[4]; [18]
  % Injury VL: 85%
[4]; [19]
  % Injury VL: 80%
[4]; [20]
  % Injury VL: 65%
[5]; [21]
  % Injury BYG: 0%
[5]; [22]
  % Injury BYG: 10%
[5]; [23]
  % Injury BYG: 15%
[5]; [24]
  % Injury BYG: 40%
[6]; [21]
  % Injury VL: 50%
[6]; [22]
  % Injury VL: 60%
[6]; [23]
  % Injury VL: 65%
[6]; [24]
  % Injury VL: 65%
[7]; [25]
  % Injury BYG: 90%
[7]; [26]
  % Injury BYG: 85%
[7]; [27]
  % Injury BYG: 85%
[7]; [28]
  % Injury BYG: 90%
[8]; [25]
  % Injury VL: 70%
[8]; [26]
  % Injury VL: 75%
[8]; [27]
  % Injury VL: 85%
[8]; [28]
  % Injury VL: 75%
Corn [9]; [29]
  % Injury Corn: 0%
Corn [9]; [30]
  % Injury Corn: 10%
Corn [9]; [31]
  % Injury Corn: 15%
Corn [9]; [32]
  % Injury Corn: 15%
Corn [10]; [17]
  % Injury Corn: 25%
Corn [10]; [18]
  % Injury Corn: 25%
Corn [10]; [19]
  % Injury Corn: 15%
Corn [10]; [20]
  % Injury Corn: 30%
[11]; [29]
  % Injury BYG: 100%
[11]; [30]
  % Injury BYG: 100%
[11]; [31]
  % Injury BYG: 100%
[11]; [32]
  % Injury BYG: 100%
[12]; [29]
  % Injury VL: 70%
[12]; [30]
  % Injury VL: 65%
[12]; [31]
  % Injury VL: 75%
[12]; [32]
  % Injury VL: 70%

## COC(=O)c1c(Cl)nn(C)c1S(=O)(=O)NC(=O)Nc1nc(OC)cc(OC)n1 [Herbicide No. 1]
[1]; [33]
  % Injury BYG: 93%
[1]; [34]
  % Injury BYG: 55%
[1]; [35]
  % Injury BYG: 93%
[1]; [36]
  % Injury BYG: 70%
[2]; [33]
  % Injury VL: 80%
[2]; [34]
  % Injury VL: 65%
[2]; [35]
  % Injury VL: 85%
[2]; [36]
  % Injury VL: 80%
Corn [9]; [37]
  % Injury Corn: 20%
Corn [9]; [38]
  % Injury Corn: 0%
Corn [9]; [39]
  % Injury Corn: 10%
Corn [9]; [40]
  % Injury Corn: 30%
[11]; [37]
  % Injury BYG: 100%
[11]; [38]
  % Injury BYG: 35%
[11]; [39]
  % Injury BYG: 75%
[11]; [40]
  % Injury BYG: 100%
[12]; [37]
  % Injury VL: 70%
[12]; [38]
  % Injury VL: 60%
[12]; [39]
  % Injury VL: 75%
[12]; [40]
  % Injury VL: 85%

## COC(=O)c1c(Cl)nn(C)c1S(=O)(=O)NC(=O)Nc1nc(OC)cc(OC)n1 [No.1]
[3]; [41]
  % Injury BYG: 90%
[3]; [42]
  % Injury BYG: 30%
[3]; [43]
  % Injury BYG: 85%
[3]; [44]
  % Injury BYG: 55%
[4]; [41]
  % Injury VL: 80%
[4]; [42]
  % Injury VL: 45%
[4]; [43]
  % Injury VL: 75%
[4]; [44]
  % Injury VL: 55%
[5]; [45]
  % Injury BYG: 20%
[5]; [42]
  % Injury BYG: 10%
[5]; [46]
  % Injury BYG: 50%
[5]; [44]
  % Injury BYG: 10%
[6]; [45]
  % Injury VL: 60%
[6]; [42]
  % Injury VL: 50%
[6]; [46]
  % Injury VL: 70%
[6]; [44]
  % Injury VL: 65%
[7]; [47]
  % Injury BYG: 95%
[7]; [42]
  % Injury BYG: 30%
[7]; [48]
  % Injury BYG: 95%
[7]; [44]
  % Injury BYG: 70%
[8]; [47]
  % Injury VL: 80%
[8]; [42]
  % Injury VL: 50%
[8]; [48]
  % Injury VL: 85%
[8]; [44]
  % Injury VL: 65%
Corn [10]; [41]
  % Injury Corn: 25%
Corn [10]; [42]
  % Injury Corn: 30%
Corn [10]; [43]
  % Injury Corn: 20%
Corn [10]; [44]
  % Injury Corn: 25%
